Experimental data as given in patent US20080039434A1, “Treatment of Interstitial Cystitis with Vitamin D Compounds” (BioXell S. p.A., priority 2004, published 2008).

What was measured:
[1] = Calcemia assessment in allergic IC mice (colorimetric serum calcium assay); assay type: in vivo, mouse; conditions: oral ug/kg: C 3, A 0.1, E 0.3, F 30, G 100, H 1, I 3; elevations p<0.001
Protocol: Serum calcemia was evaluated by a commercially available colorimetric assay (Calcium Dry-Fast, Sentinel CH. Italy). Briefly, 10 ul serum were added to 100 ul reaction solution prepared according to the manufacturer's procedure in a 96-wells plate. After 5 min incubation at RT samples were read at 570 nm with a spectrophotometer and the calcium levels were calculated in triplicate by using a standard reference as directed.

[2] = system: ovalbumin-challenged mouse bladder; assay: Blind histological analysis of bladder sections, allergic IC in mice; assay type: in vivo; conditions: p<0.05; for number of LMPC in the bladder wall: oral ug/kg: E 0.3, I 3, vs vehicle
Protocol: (§1) Mice (BALB/c, females 8 weeks old, weight 18-20 g, Charles River, Calco ITA) were sensitized by injecting 10 ug/mouse of chicken ovalbumin from Sigma (OVA, grade V) in the presence of 4 mg of alum (SERVA, Germany) by intraperitoneal injection, once a week for 4 weeks. This induces a sustained level of IgE detectable in serum.
(§2) One or two weeks after the last immunization boost, sensitized mice were anesthetized (1.5% Isoflurane) and then trans-urethrally catheterized (24 gauge, ¾ in.; Angiocath, Becton-Dickson). Slight digital pressure was applied the lower abdomen to drain the urine.
(§3) The urinary bladders were instilled with either 150 ul of either saline or OVA alone, (1 mg/150 ul) infused at a slow rate to avoid trauma and vesico-ureteral reflux and repeated twice within a 30-min interval with the syringe kept in place on the catheter for at least 30 min. Intravesical challenge was repeated 7-10 days after the first one with the same procedure.
(§4) An ethanol stock solution of Compound B (1 mg/ml) was dissolved in Miglyol vehicle at the appropriate concentration. Control animals received the vehicle containing the same amount of ethanol. Drug (or vehicle) treatment was carried out by daily gavage after weighing the animal. Drug solution was prepared calculating a final volume of 100 ul/10 grams body weight, and treatment was started on the day of the first intravesical ovalbumin challenge, maintained daily, but discontinued over the weekends, for 12 days total treatment. FIG. 7 illustrates the timeline of the experiment.
Bladders were explanted from the animals, longitudinally divided in two moieties, one half was either immediately fixed in formalin (10% buffered) for at least 3 hrs or snap frozen in liquid nitrogen upon inclusion in OCT freezing medium (Tissue-Tek Sakura). For histological analysis, fixed bladders were further processed and finally paraffin embedded. Five um sections were serially cut then stained with GIEMSA (BDH, 20% solution, 3 hrs RT) and then de-stained in 0.1% acetic acid for 10 sec. After a clarification step in Xylene, slides were permanently mounted with Eukitt medium and analyzed by a pathologist in a blinded fashion in order to evaluate for inflammatory cell infiltrate, mast cell numbers, and the presence of interstitial edema. A semi-quantitative histological score was used, assigning: 1 for mild infiltrate, no edema; 2 for intermediate infiltration, little edema; and 3 for severe infiltration and edema.
(§5) Experiments in Example 7 were performed according to the general procedures described previously in Example 6. Mice were challenged with saline (untreated) or ovalbumin (treatment with vehicle or one of Compounds C-I at a dosage indicated in Table 6 in ug/kg).

MMCP4 = assay: Taq-Man analysis of bladder mRNA, allergic IC in mice: MMCP4; assay type: in vivo, mouse; conditions: ovalbumin challenged vs vehicle; oral ug/kg: E 0.3, F 30, H 1, I 3; H, I p<0.05, E, F p<0.001
Protocol: as §1, §2, §3, §4
(§6) Total RNA was extracted from one half of bladder by using RNeasy Mini kit (Qiagen), treated with DNase 1 (Qiagen) and reverse transcription performed with Reverse Transcription Reagent (Applied Biosystems) with Random Hexamers (according to the manufacturer's instructions). cDNA was synthesized from 1 ug of RNA. Real-Time PCR was performed in 96-well optical reaction plates (Applied Biosystems). For each sample we amplified both the target gene and the housekeeping gene (HPRT) in different wells (singleplex) and in duplicate. The amplification Master Mix was prepared according to the following protocol (volumes refer to a single well with a final volume of 40 ul/well)): 2× TaqMan® R Universal PCR Master Mix (Applied Biosystems, 4304437): 20 ul; 20× Assay target gene: 2 ul; H2O: 8 ul; cDNA: 10 ul. Reaction was run on an SDS 7000 (Applied Biosystems) instruments, with the following amplification program: 2′ at 50° C.; 10′ at 95° C.; 15″ at 95° C. and 1′ at 60° C. for 40 cycles; Cycle threshold (Ct) values were exported into Excel Worksheets for analysis and relative quantitations were performed using the ΔCt method. All primers used carried the FAM reporter.
as §5

FcεR1α = assay: Taq-Man analysis of bladder mRNA, allergic IC in mice: FcεR1α; assay type: in vivo, mouse; conditions: ovalbumin challenged vs vehicle; oral ug/kg: E 0.3, F 30, H 1; E, H p<0.05, F p<0.001
Protocol: as §1, §2, §3, §4, §6, §5

[3] = system: allergen-induced chronic bladder inflammation; assay: Efficacy ranking in the allergen-induced chronic bladder inflammation model of interstitial cystitis; assay type: in vivo, mouse; conditions: each compound at its tested dosage
Protocol: as §5
Summarizing all the results presented above in Example 7, we can conclude that these compounds can be ranked with respect to their efficacy in reducing several parameters measuring inflammation of the bladder in the allergen-induced chronic bladder inflammation model of interstitial cystitis.

MMCP1 protein = assay: Serum level of mast-cell derived chymase MMCP1 protein, allergic IC in mice; assay type: in vivo, mouse; conditions: ovalbumin challenged vs vehicle; oral ug/kg: A 0.1, E 0.3, F 30; F p<0.05, A, E p<0.001
Protocol: as §1, §2, §3
Treatment Group: 10 mice were treated with oral vitamin D3 analogue (1-alpha-fluoro-25-hydroxy-16,23Ediene-26,27-bishomo-20-epi-cholecalciferol) Compound “B” for 14 days (daily dose of either 30 or 75 ug/kg).
as §4, §5

IL-13 = assay: Taq-Man analysis of bladder mRNA, allergic IC in mice: IL-13; assay type: in vivo, mouse; conditions: ovalbumin challenged vs vehicle; oral ug/kg: E 0.3, F 30, H 1, I 3; H, I p<0.05, E, F p<0.001
Protocol: as §1, §2, §3, §4, §6, §5

BPH cells = conditions: previously found; cited from earlier work
[4] = system: patients with interstitial cystitis; conditions: oral administration, long term basis; cited from earlier work

Molecule | serum calcium levels relative to the vehicle treated control group [1] | numbers of mast cells in the bladder wall ([2]; 3 ug/kg oral vs vehicle) | mRNA expression level of MMCP4 gene (MMCP4) | mRNA expression level of the FcεR1α gene (FcεR1α) | Efficacy ranking in reducing parameters of bladder inflammation [3] | number of LMPC in the bladder wall [2] | serum level of the MMCP1 protein (MMCP1 protein) | mRNA expression level of the IL-13 gene (IL-13) | BPH cell proliferation (BPH cells) | mitogenic activity of growth factors KGF and IGF1 for BPH cells (BPH cells) | patients who show a beneficial effect [4]
CC(=O)OC1C/C(=C/C=C2\CCC[C@]3(C)C(C(C)CCCC(C)(C)O)=CCC23)C[C@@H](OC(C)=O)C1 (stereo partly shown) [Compound C, 1,3-Di-O-acetyl-1,25-dihydroxy-16-ene-19-nor-cholecalciferol] | slight elevation | significantly reduced numbers |  |  |  |  |  |  |  |  | 
CC(=O)OC1C/C(=C/C=C2\CCC[C@@]3(C)C2CCC3C2(C/C=C/C(O)(C(F)(F)F)C(F)(F)F)CC2)C[C@@H](OC(C)=O)C1 (stereo partly shown) [Compound E, 1,3-Di-O-acetyl-1,25-dihydroxy-20-cyclopropyl-23E-ene-26,27-hexafluoro-19-nor-cholecalciferol] | slight elevation |  | statistically significant reductions | statistically significant reductions | Compound E>Compound F>Compound B>Compound H>Compound I>Compound A>Compound A=Compound G | significant reduction | statistically significant reduction | statistically significant reductions |  |  | 
C=C1CC[C@H](O)C/C1=C/C=C1\CCC[C@]2(C)[C@@H]([C@H](C)CCCC(C)C)CC[C@@H]12 [vitamin D3] |  |  |  |  |  |  |  |  | inhibited | counteracted | 
pentosan polysulphate sodium [PPS] |  |  |  |  |  |  |  |  |  |  | less than 20%

Second part, led by results:

serum calcium levels relative to the vehicle treated control group [1] | Molecule | numbers of mast cells in the bladder wall ([2]; 3 ug/kg oral vs vehicle) | mRNA expression level of MMCP4 gene (MMCP4) | mRNA expression level of the FcεR1α gene (FcεR1α) | Efficacy ranking in reducing parameters of bladder inflammation [3] | number of LMPC in the bladder wall [2] | serum level of the MMCP1 protein (MMCP1 protein) | mRNA expression level of the IL-13 gene (IL-13) | BPH cell proliferation (BPH cells) | mitogenic activity of growth factors KGF and IGF1 for BPH cells (BPH cells) | patients who show a beneficial effect [4]
slight elevation | C=C1/C(=C\C=C2/CCC[C@@]3(C)C2CCC3C2(CCCC(C)(C)O)CC2)CC(OC(C)=O)C[C@@H]1OC(C)=O (stereo partly shown) [Compound F, 1,3-Di-O-acetyl-1,25-dihydroxy-20-cyclopropyl-cholecalciferol] |  | statistically significant reductions | statistically significant reductions | Compound E>Compound F>Compound B>Compound H>Compound I>Compound A>Compound A=Compound G |  | statistically significant reduction | statistically significant reductions |  |  | 
slight elevation | C=C1/C(=C\C=C2/CCC[C@]3(C)C(C4(CCCC(C)(C)O)CC4)=CCC23)CC(O)C[C@@H]1O (stereo partly drawn) [Compound H, 1α,25-Dihydroxy-16-ene-20-cyclopropyl-cholecalciferol] |  | statistically significant reductions | statistically significant reductions | Compound E>Compound F>Compound B>Compound H>Compound I>Compound A>Compound A=Compound G |  |  | statistically significant reductions |  |  | 
slight elevation | CC(C)(O)CCCC(CCCC(C)(C)O)[C@H]1CC[C@H]2/C(=C/C=C3C[C@@H](O)C[C@H](O)C3)CCC[C@]12C [Compound I, 1,25-dihydroxy-21-(3-hydroxy-3-methylbutyl)-19-nor-cholecalciferol] |  | statistically significant reductions |  | Compound E>Compound F>Compound B>Compound H>Compound I>Compound A>Compound A=Compound G | significant reduction |  | statistically significant reductions |  |  | 
